Laboratory results: article PMC7849180 (Frontiers in Pharmacology, 2020)

How the values were obtained:
[1] = test system: ERK; test: Phosphorylation of Elk-1 by ERK; format: biochemical
Source text: (§1) Suzhou Zelgen Biopharmaceuticals Co., Ltd. Jaktinib Hydrochloride Tablets Chemical Drug Class 1 New Drug has been completed. The ongoing toxicity tests include a long-term 39-week toxicity test in Beagle dogs by oral administration, a reproductive toxicity test in rats during the teratogenic sensitive period, and a reproductive toxicity test in rabbits during the teratogenic sensitive period.
(§2) Preclinical Pharmacodynamic Study
(§3) Study on the in vitro Pharmacodynamic Effects of ZG0163 at the […]
(§4) In this study, the effects of ZG0163 was similar to those of positive control compounds, ZG0164 and ZG0178.
(§5) Study on the in vitro Pharmacodynamic Effects of ZG0163 at the Cellular Level (Ba/F3-EpoR-JAK2V617F cells)
(§6) JAK2V617F cell line, the compound ZG0163 was able to induce apoptosis of pathogenic cells and eliminate abnormal cell proliferation by inhibiting the JAK-STAT signaling pathway, thus achieving treatment efficacy in myeloproliferative neoplasms. […]
(§7) cell line, manifested as significant inhibition of phosphorylation of JAK2 and its downstream signaling proteins ERK and STAT5. The effects of ZG0163 was similar to those of positive control compounds, ZG0164 and ZG0178.
(§8) EpoR-JAK2V617F, which was similar to those of positive control compounds, ZG0164

[2] = Estimate of human equivalent and starting dose from animal NOAEL; settings: for maximum safe starting dose in human: safety factor 10; for MRSD: safety factor 10, 60 kg
Description: The human equivalent doses (HED) for the above tests were 9 mg/kg and 5 mg/kg, respectively (Table 9). According to the "Guidance for Estimating the Maximum Recommended Dose in Initial Clinical Trials for Therapeutics in Adult Healthy Volunteers" issued by CFDA and a safety factor of 10, the maximum safe starting doses for the first dose in human were calculated as about 50 mg and 30 mg, respectively.
The single starting dose of this study was set to 25 mg, while the highest dose was set to 400 mg. The 400 mg dose would not be further increased even it was […]
Animal Test Anima Dosage HNSTD HED MRSD […]
Toxicity Test 61.0/oral gavage in Beagle Dogs 196.2/oral gavage a The safety factor was 10, while the human body weight was calculated as 60 kg. […]

[3] = test system: JNK; test: Phosphorylation of c-Jun by JNK; format: biochemical
Source text: as §1, §2, §3, §4, §5, §6, §7, §8

[4] = Metabolic stability in liver microsomes; format: in vitro ADME, rat
Description: The metabolic stability of ZG0128 (the dihydrochloride monohydrate of ZG0163) was evaluated using human, monkey, dog, rat, and mouse liver microsomes as the in vitro models. The percentages of residues for ZG0128 after incubating in human, monkey, dog, rat, and mouse liver microsomes for 60 minutes was 55.5%, 63.1%, 67.1%, 80.3%, and 79.0%, respectively. The CLint values of in vivo clearance were calculated to be 24.1, 21.6, 33.4, 10.7, 26.0 mL/min/kg, respectively. Thus its was speculated that ZG0128 was a medium clearance drug in humans, monkeys, and mice, a high clearance drug in dogs, and a low clearance drug in rats.
Using UPLC-UV/Q-TOF MS, the potential metabolites of ZG0128 in various liver microsomes (human, monkey, dog, rat and mouse liver microsomes) incubation systems were identified and the metabolic pathways of ZG0128 were speculated. The main metabolite of ZG0128 in above five types of liver microsomes were primary alcohol metabolite formed by morpholine ring-opening (M3). […]

[5] = test system: primary cells harboring the JAK2V617F mutation in patients with polycythemia vera; test: Colony forming of erythroid hematopoietic cells of polycythemia vera patients; format: cell-based, human; settings: 1 μM
Source text: Suzhou Zelgen Biopharmaceuticals Co., Ltd. Jaktinib Hydrochloride Tablets Chemical Drug Class 1 New Drug and ZG0178. However, the inhibitory effect on the activity of Ba/F3-EpoR cell line […]
respectively. Obviously, this selective inhibition is associated with the aberrant expression of JAK2 in Ba/F3-EpoR-JAK2V617F mutant cells, and the degree of ZG0163 inhibition on JAK-STAT signaling pathway in this cell line. […]
cells, and the effects of ZG0163 was similar to those of positive control compounds, […]
In Vitro Inhibitory Effect of ZG0128 on Cell Lines Transfected with Oncogenes and Primary Blood Cells in Patients with Polycythemia Vera
In vitro cell culture assay was used to determine whether compound ZG0128 […]
cell line harboring a JAK2V617F mutation, and 8 HCD-57 cell lines stably transfected with oncogenic mutations JAK2V617F, MPLW515L, KITD816V, NPM-ALK, FLT3-ITD, FLT3D835H, FLT3D835Y and KRasG12V, respectively. In addition, study the inhibitory effects of compound ZG0128 on the growth of hematopoietic progenitor cells in patients with polycythemia vera.
9 cell lines were similar to those of positive control drug ZG0192. At the sub-micromolar concentration, both compounds ZG0128 and ZG0192 were able to […]
the growth of HCD-57 cells transfected with oncogenic mutations JAK2V617F, […]
spectrum inhibitory effect on tyrosine kinases. […]

| Compound | effect on phosphorylation of Elk-1 by ERK [1] | human equivalent dose (HED) ([2]; from 26-week rat NOAEL) | human equivalent dose (HED) ([2]; from 28-day Beagle dog NOAEL) | maximum safe starting dose in human ([2]; from dog NOAEL) | MRSD ([2]; from dog NOAEL) | maximum safe starting dose in human ([2]; from rat NOAEL) | MRSD ([2]; from rat NOAEL) | effect on phosphorylation of c-Jun by JNK [3] | CLint of in vivo clearance [4] | percentage of residue after 60 minutes [4] | colony forming of erythroid hematopoietic cells [5] |
| --- | --- | --- | --- | --- | --- | --- | --- | --- | --- | --- | --- |
| Jaktinib | significantly inhibited | 5 mg/kg | 9 mg/kg | about 50 mg | 54 mg/day | ~30 mg | 30 mg/day | no significant effects | – | – | – |
| Cl.Cl.O.[2H]C1([2H])COCC([2H])([2H])N1c1ccc(Nc2nccc(-c3ccc(C(=O)NCC#N)cc3)n2)cc1 [ZG0128, Jaktinib Dihydrochloride Monohydrate] | – | – | – | – | – | – | – | – | 10.7 mL/min/kg | 80.3% | almost completely inhibited |
